Source: patent publication US7041446B2, “Labeled protein and its producing method, labeling compound to be used in the method, and method for analyzing function of genes” (priority 1998, dated 2006)

Experiments:
[1] = test system: C-terminal of thioredoxin; test: Labeling of translated protein in cell-free transcription-translation system of E. coli; assay type: biochemical; conditions: for linkage to the C-terminal of thioredoxin: cell-free transcription-translation system of E. coli
Procedure: rCpPur (30 pmol) was phosphorylated by T4 polynucleotide kinase (10 units) in the presence of γ-^33P-ATP (9.25 MBq). The reaction was carried out under the condition of 37° C. for 1 hour. After the reaction was over, the reaction mixture was heated at 70° C. for 20 minutes to inactivate the enzyme.
Labeling reaction was carried out using a cell-free transcription-translation system of E. coli. The reaction mixture (25 μl) of the cell-free transcription-translation system of E. coli had the following composition: 7.5 μl of E. coli S30 extract (containing T7 RNA polymerase), 10 μl of E. coli S30 premix, 2.5 μl of an amino acid mixed solution, 1 μl of an RNase inhibitor, 1 μg of plasmid (thioredoxin), and 0.0003 to 0.3 μM (final concentration) of the ^33P-rCpPur described above. As a control, the reaction was carried out also in a system containing ^35S-methionine (1.2 μM). After the reaction was carried out at 37° C. for 30 minutes, precipitation was performed with acetone. A buffer solution (pH 8) containing 1% SDS was added to the precipitate, and then heated at 90° C. for 5 minutes for dissolution, separated by SDS-15% polyacrylamide gel electrophoresis, and analyzed using an image analyzer (Fuji Photo Film, BAS 2000). […] When the concentration of ^33P-rCpPur was 0.3 μM, a distinct band corresponding to the full-length thioredoxin was detected at the position of apparent molecular weight of 12 kDa. […] The band with an apparent molecular weight of 12 kDa was detected even when labeled with ^35S-methionine (final concentration: 1.2 μM) (FIG. 3).
Fluorescent labeling of a protein by a cell-free transcription-translation system of E. coli in the presence of Fluorpur and Fluorthiopur was examined. […] After the reaction was carried out at 37° C. for 30 minutes, precipitation was performed with acetone. A buffer solution (pH 8) containing 1% SDS was added to the precipitate, then heated at 90° C. for 5 minutes for dissolution, separated by SDS-15% polyacrylamide gel electrophoresis, and detected for fluorescent bands of protein using a fluorescent gel scanner (Fluor Imager 585, Molecular Dynamics). Measurement was made at an excitation wavelength of 488 nm and an emission wavelength of 520 nm. FIGS. 4A, 4B and 4C show the results of fluorescent labeling of thioredoxin with Fluorpur and Fluorthiopur. For both Fluorpur and Fluorthiopur in a concentration ranges of 0.36 to 1.44 μM, fluorescent bands were detected at the position of apparent molecular weight of 12 kDa indicated by an arrow (FIGS. 4A and 4B).

[2] = test system: protein synthesis of bacteria; conditions: cited from earlier work
[3] = test system: protein synthesis of animal cells; conditions: cited from earlier work
[4] = test system: full-length protein of thioredoxin; test: Labeling of thioredoxin in cell-free transcription-translation system containing nuclease treated rabbit reticulocyte lysate; assay type: biochemical, E. coli
Procedure: (§1) The fluorescent labeling of the full-length protein of thioredoxin with Fluorpur and Fluorthiopur was confirmed also in a cell-free transcription-translation system containing nuclease treated rabbit reticulocyte lysate or wheat germ lysate. The respective optimal concentrations of Fluorpur and Fluorthiopur necessary for fluorescent labeling were 0.3 to 50 μM in the system containing nuclease treated rabbit reticulocyte lysate and 10 to 50 μM in the case of the system containing wheat germ lysate.

[5] = test system: full-length protein of thioredoxin; test: Labeling of thioredoxin in cell-free transcription-translation system containing wheat germ lysate; assay type: biochemical, E. coli
Procedure: as §1

Row | Molecule | band with an apparent molecular weight of 12 kDa ([1]; control label, final concentration 1.2 μM) | inhibition of protein synthesis [2] | inhibition of protein synthesis [3] | linkage to the C-terminal of thioredoxin [1] | labeling of the full-length protein of thioredoxin [4] | labeling of the full-length protein of thioredoxin [5] | incorporation compared with Fluorpur ([1]; fluorescent labeling of thioredoxin, E. coli system)
1 | CSCC[C@H](N)C(=O)O [^35S-methionine, reference compound] | detected | – | – | – | – | – | –
2 | COc1ccc(C[C@H](N)C(=O)N[C@H]2[C@@H](O)[C@H](n3cnc4c(N(C)C)ncnc43)O[C@@H]2CO)cc1 [puromycin, 3′-[α-amino-p-methoxyhydro-cinnamamido]-3′-deoxy-N,N′-dimethyladenosine] | – | inhibit the protein synthesis | inhibit the protein synthesis | – | – | – | –
3 | fluoresceinylphosphopuromycin [Fluorpur] | – | – | – | linked to the C-terminal of the full-length protein | can be confirmed | can be confirmed | –
4 | fluoresceinylthiophophopuromycin [Fluorthiopur] | – | – | – | linked to the C-terminal of the full-length protein | can be confirmed | can be confirmed | more or less efficiently
